Data taken from US20230020663A1, “SULFONAMIDE INHIBITORS AS CTPS1 INHIBITORS” (Step Pharma S.A.S., priority 2019, published 2023).

tested on: human CTPS1 versus CTPS2; experiment: Human CTPS1 versus CTPS2 selectivity assessment by RapidFire/MS analysis; assay type: biochemical; conditions: Table 26; RapidFire/MS IC50 ratio
Experimental: Human CTPS1 versus CTPS2 Selectivity Assessment by RapidFire/MS Analysis.
The enzyme inhibitory activities against each target isoform of interest may be determined for the compounds of the invention using an optimised RapidFire high-throughput mass spectrometry (RF/MS) assay format. RF/MS assays for both human CTPS1 and CTPS2 may be performed in assay buffer consisting of 50 mM HEPES (Merck), 20 mM MgCl2, 5 mM KCl, 1 mM DTT, 0.01% Tween-20, pH to 8.0 accordingly. Human full-length active C-terminal FLAG-His-tag CTPS1 (UniProtKB—P17812, CTPS[1-591]-[…]) may be obtained from Proteros biostructures GmbH. Human full length active C-terminal FLAG-His-Avi tagged CTPS2 (UniProtKB-Q9NRF8, CTPS2 [1-586]-[…]) may be obtained from Harker Bio.
Human CTPS (1 or 2) protein may be prepared in 1× assay buffer to the final working protein concentration required for the reaction. A 2 uL volume per well of 2×CTPS (1 or 2) protein may be mixed with 40 nL of compound using acoustic (ECHO) delivery and incubated for 10 minutes at 25° C. Each isoform enzymatic reaction may be subsequently initiated by addition of 2 uL per well of a 2× substrate mix in assay buffer. For hCTPS1: ATP (0.3 mM), UTP (0.2 mM), GTP (0.07 mM) and L-glutamine (0.1 mM). For hCTPS2: ATP (0.1 mM), UTP (0.04 mM), GTP (0.03 mM) and L-glutamine (0.1 mM). Each mixture may be incubated for an appropriate amount of time per isoform within the determined linear phase of the reaction at 25′C. A 60 uL volume of stop solution (1% formic acid with 0.5 uM ^13C9-^15N3-CTP in H2O) may be added and the plate immediately heat-sealed and centrifuged for 10 minutes at 4,000 rpm. Following centrifugation, plates may be loaded onto the Agilent RapidFire microfluidic solid phase extraction system coupled to an API4000 triple quadrupole mass spectrometer (RF/MS) for analysis.
In all cases, the enzyme converts UTP to CTP. Highly specific and sensitive multiple reaction monitoring (MRM) MS methods may be optimised for the detection of the enzymatic reaction product, CTP, and the stable isotope labelled product standard ^13C9-^15N3-CTP. Readout for data analysis may be calculated as the ratio between the peak area of the product CTP and the internal standard ^13C9-^15N3-CTP. For data reporting, the following equation may be used: […]
For each screening plate, the means of the negative (DMSO) and positive control values were used for the calculation of the respective assay window (S/B) and Z′ values. The median of the respective control values was used for calculation of percent inhibition according to the following equation: […]
Percentage inhibition was then plotted against compound concentration, and the 50% inhibitory concentration (IC50) was determined from the resultant concentration-response curve.
Fold selectivity between CTPS1 and CTPS2 was subsequently calculated according to the following equation: […]

Row | Compound | Selectivity (fold selectivity between CTPS1 and CTPS2)
1 | CCC(C(=O)Nc1ccc(-c2cncc(OCC(F)(F)F)n2)cc1F)c1ccnc(NS(=O)(=O)C2CC2)n1 (stereo not drawn) [Example P98] | +++ (>60 fold (+++))
2 | CCC(C(=O)Nc1ccc(-c2cncc(C(F)(F)F)n2)cc1)c1ccnc(NS(=O)(=O)C2CC2)n1 (stereo not drawn) [Example P103] | + (2-30 fold (+))
3 | CCOc1cncc(-c2ccc(NC(=O)C(CC)c3ccnc(NS(=O)(=O)C4CC4)n3)cc2)n1 (stereo not drawn) [Example P105, 2-(2-(Cyclopropanesulfonamido)pyrimidin-4-yl)-N-(4-(6-ethoxypyrazin-2-yl)phenyl)butanamide] | ++ (>30-60 fold (++))
4 | CCC(C(=O)Nc1ccc(-c2cncc(OCC(F)(F)F)n2)cc1)c1ccnc(NS(=O)(=O)C2CC2)n1 (stereo not drawn) [Example P108] | +++ (>60 fold (+++))
5 | CCOc1cncc(-c2ccc(NC(=O)C(CCOC)c3ccnc(NS(=O)(=O)C4CC4)n3)cc2)n1 (stereo not drawn) [Example P110] | ++ (>30-60 fold (++))
6 | CCOc1cncc(-c2ccc(NC(=O)C3(c4ccnc(NS(=O)(=O)C5CC5)n4)CCOCC3)nc2)n1 [Example P115, 4-(2-(Cyclopropanesulfonamido)pyrimidin-4-yl)-N-(5-(6-ethoxypyrazin-2-yl)pyridin-2-yl)tetrahydro-2H-pyran-4-carboxamide] | +++ (>60 fold (+++))
7 | CCOc1cncc(-c2ccc(C(=O)NCc3ccnc(NS(=O)(=O)C4CC4)n3)cc2)n1 [Example P118] | +++ (>60 fold (+++))
8 | CC(C)(C(=O)Nc1ccc(-c2cncc(C3CC3)n2)cn1)c1ccnc(NS(=O)(=O)C2CC2)n1 [Example P125] | ++ (>30-60 fold (++))
9 | CC(C)(C(=O)Nc1ccc(-c2cncc(C3CC3)n2)cc1F)c1ccnc(NS(=O)(=O)C2CC2)n1 [Example P128] | + (2-30 fold (+))
10 | CC(C)c1cncc(-c2ccc(NC(=O)C(C)(C)c3ccnc(NS(=O)(=O)C4CC4)n3)cc2)n1 [Example P132] | ++ (>30-60 fold (++))
11 | CCOc1cncc(-c2ccc(NC(=O)C3(c4ccnc(NS(=O)(=O)C5CC5)n4)CCCC3)nc2)n1 [Example P136] | +++ (>60 fold (+++))
12 | CCOc1cncc(-c2ccc(NC(=O)C3(c4ccnc(NS(=O)(=O)C5CC5)n4)CCOCC3)c(F)c2)n1 [Example P143] | +++ (>60 fold (+++))
13 | CCOc1cncc(-c2ccc(NC(=O)C(CCOC)c3ccnc(NS(=O)(=O)C4CC4)n3)nc2)n1 (stereo not drawn) [Example P145] | +++ (>60 fold (+++))
14 | CCOc1cncc(-c2ccc(NC(=O)C(CCOC)c3ccnc(NS(=O)(=O)C4CC4)n3)c(F)c2)n1 (stereo not drawn) [Example P146] | +++ (>60 fold (+++))
15 | CCOc1cncc(-c2ccc(NC(=O)C(F)(CC)c3ccnc(NS(C)(=O)=O)n3)nc2)n1 (stereo not drawn) [Example P151] | +++ (>60 fold (+++))
16 | CCOc1cncc(-c2cnc(NC(=O)C(CC)c3ccnc(NS(=O)(=O)C4CC4)n3)c(C)c2)n1 (stereo not drawn) [Example P155] | + (2-30 fold (+))
17 | CCC(C(=O)Nc1ncc(-c2cncc(OC)n2)cc1F)c1ccnc(NS(=O)(=O)C2CC2)n1 (stereo not drawn) [Example P158] | + (2-30 fold (+))
18 | CCC(C(=O)Nc1ccc(-c2cncc(OC)n2)cn1)c1ccnc(NS(=O)(=O)C2CC2)n1 (stereo not drawn) [Example P159] | +++ (>60 fold (+++))
19 | CCOc1cncc(-c2ccc(NC(=O)C(CC)c3ccnc(NS(=O)(=O)C4CC4)n3)c(C)c2)n1 (stereo not drawn) [Example P161] | + (2-30 fold (+))
20 | CCOc1cncc(-c2cnc(NC(=O)C(CC)c3ccnc(NS(=O)(=O)C4CC4)n3)c(F)c2)n1 (stereo not drawn) [Example P162] | ++ (>30-60 fold (++))
21 | CCOc1cncc(-c2ccc(NC(=O)C(C)(CC)c3ccnc(NS(=O)(=O)C4CC4)n3)nc2)n1 (stereo not drawn) [Example P163] | +++ (>60 fold (+++))
